According to ChEMBL document CHEMBL3739425, “Exploring cinnamic acid scaffold: development of promising neuroprotective lipophilic antioxidants” (Medchemcomm, 2015):
The source made the active and inactive calls. No cut-off for these calls is given here.

How the values were obtained:
SH-SY5Y [1] = assay: Neuroprotective activity in human SH-SY5Y cells assessed as inhibition of 6-OH-DA-induced cytotoxicity at 10 uM compound incubated for 1 hr followed by 24 hrs incubation with 100 uM 6-OH-DA by MTT assay; assay type: functional, cell-based
SH-SY5Y [2] = assay: Cytotoxicity against human SH-SY5Y cells at 1 and 10 uM after 24 hrs by MTT assay; assay type: cell-based
[3] = Antioxidant activity assessed as ABTS radical scavenging activity by spectrophotometry; assay type: physicochemical
[4] = Iron chelation activity of compound assessed as [Fe(ferrozine)3]2+ complex formation by spectrophotometry; assay type: physicochemical
[5] = Antioxidant activity assessed as galvinoxyl radical scavenging activity measured over 30 mins by spectrophotometry; assay type: physicochemical
SH-SY5Y [6] = assay: Neuroprotective activity in human SH-SY5Y cells assessed as inhibition of 6-OH-DA-induced cytotoxicity at 1 uM compound incubated for 1 hr followed by 24 hrs incubation with 100 uM 6-OH-DA by MTT assay; assay type: functional, cell-based
[7] = Antioxidant activity assessed as DPPH radical scavenging activity measured every minute over 45 mins by spectrophotometry; assay type: physicochemical

Row | IC50 [3] [µM] | Activity [4] | IC50 [5] [µM] | IC50 [7] [µM] | Structure (SMILES) | inhibition (SH-SY5Y [1]) | Activity (SH-SY5Y [2]) | inhibition (SH-SY5Y [6])
1 | 11.1 | Active | 2.5 | 18.2 | O=C(O)/C=C/C=C/c1ccc(O)c(O)c1 [DEMETHYLENATED PIPERIC ACID] | Active | Non-toxic | Active
2 | 23.9 |  | 26.5 | 49.3 | COc1cc(/C=C/C(=O)O)ccc1O [FERULATE] |  |  | 
3 | > 50 |  |  | > 75 | COc1ccc(/C=C/C=C/C(=O)O)cc1OC | inactive | Non-toxic | inactive
4 | 19.7 |  | 4.8 | 42.5 | COc1cc(/C=C/C=C/C(=O)O)ccc1O | Active | Non-toxic | 
5 | 2.8 |  | 3.4 | 30.8 | Cc1c(C)c2c(c(C)c1O)CCC(C)(C(=O)O)O2 (racemic) [TROLOX] |  |  | 
6 | 17.5 | Active | 27 | 21.7 | O=C(O)/C=C/c1ccc(O)c(O)c1 [CAFFEIC ACID] |  |  | 
